Results taken from US20090142846A1, “METHODS FOR MEASURING BIOCHEMICAL REACTIONS” (EKSIGENT TECHNOLOGIES, LLC, priority 2005, published 2009).
Where two headings read alike, the source gives them in different places.

Assays:
P. falciparum LDH = P. falciparum LDH (Plasmodium falciparum, UniProt Q27743); test: Fluorescence-coupled LDH enzyme assay on microfluidics system with continuously variable concentration gradient; assay type: biochemical
Description: A fluorescence-coupled enzyme assay was developed using a microfluidics system described herein for creating a continuously variable concentration gradient to monitor the reduction of NAD^+ by the enzyme LDH to give a fluorescent end product. This system was then adapted to measure potency and determine mechanism of inhibition by various inhibitors of LDH.
One of the products of the reaction in the assay, NADH, is coupled to Thermus thermophilus NADH oxidase to generate H2O2, which in turn is coupled to horseraddish peroxidase which reacts with […] and amplex red (Molecular Probes, Inc., Eugene, Oreg., U.S.A.) to give the fluorescent product resorufin. […]
The novel data analysis techniques described herein for determining the mechanism of inhibition of an inhibitor (or mechanism of activation of an activator) are applied to the data produced from the microfluidics system. The titration of the enzyme with a continuous linear variation of inhibitor and substrate from zero to a pre-determined finite concentration yields a characteristic rate profile that is defined by the specific type of interaction of the inhibitor and enzyme with respect to the substrate. […]
The titration of LDH with a linear gradient of NAD^+ was performed on the microfluidics system described herein with the change in relative fluorescence intensity monitored under initial rate conditions. […]

LDH = conditions: cited from earlier work
[1] = molecular target: rabbit muscle lactate dehydrogenase (LDH) (Oryctolagus cuniculus, UniProt P13491); test: Continuous variation method on a microtiter plate (step concentration gradients); assay type: biochemical; conditions: limited data
Description: Determination of the mechanism of inhibition by the inhibitor oxalate with respect to the substrate NAD^+ against the enzyme rabbit muscle lactate dehydrogenase (LDH) using a microtiter plate to generate individual step concentration gradients was attempted. FIG. 49 is a graph showing the results of the experiment. An attempt to determine the mechanism of inhibition by the inhibitor oxalate with respect to the substrate lactate against the enzyme rabbit muscle LDH using a microtiter plate to generate individual step concentration gradients was attempted. FIG. 50 is a graph showing the results of this experiment.

Chain of P. falciparum LDH (Q27743 whole entry): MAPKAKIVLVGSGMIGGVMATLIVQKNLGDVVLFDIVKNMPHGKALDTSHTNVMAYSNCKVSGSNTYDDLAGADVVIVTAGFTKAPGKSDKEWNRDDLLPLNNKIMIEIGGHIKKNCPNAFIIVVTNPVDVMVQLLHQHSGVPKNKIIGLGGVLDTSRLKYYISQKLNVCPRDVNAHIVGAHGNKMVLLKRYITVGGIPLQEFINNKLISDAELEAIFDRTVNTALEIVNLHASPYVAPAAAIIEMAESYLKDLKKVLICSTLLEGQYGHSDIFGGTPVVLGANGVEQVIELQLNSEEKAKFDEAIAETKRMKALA

NC(=O)c1ccc[n+]([C@@H]2O[C@H](COP(=O)([O-])OP(=O)(O)OC[C@H]3O[C@@H](n4cnc5c(N)ncnc54)[C@H](O)[C@@H]3O)[C@@H](O)[C@H]2O)c1 [NAD^+]
Km (P. falciparum LDH; titration of LDH with linear gradient of NAD^+, initial rate conditions): 54 ± 2 µM

O=C(O)C(=O)O [oxalate]
mechanism of inhibition (P. falciparum LDH; with respect to substrate NAD^+): uncompetitive inhibition
inhibition mechanism (LDH; with respect to NAD^+): uncompetitive
inhibition mechanism (LDH; with respect to lactate, reported previously): competitive inhibitor
mechanism of inhibition ([1]; with respect to NAD^+, ambiguous): uncompetitive inhibitor
mechanism of inhibition ([1]; with respect to lactate): competitive inhibitor
